Data on two molecules can be found in patent US7208517B1, “Endothelin antagonists” (Abbott Labortories, priority 1994, dated 2007).

Data set [1] is described as follows: Determination of plasma protein binding (ultrafiltration, HPLC). It is filed as in vitro ADME. On the set-up: fraction unbound at 1 h: dose or concentration left out as unconfirmed. The note with it: fresh plasma, 1 hour at room temperature, read-out: percent of bound compound (plasma protein binding, % PB) (converted). The method, then: A stock solution of the test compound in 50% ethanol (2 mg/mL) was diluted 10× into PBS. A 0.4 mL sample of this secondary stock solution was added to 3.6 mL of fresh plasma, and incubated at room temperature for 1 hour. A 1 mL sample of this incubation mixture was transferred to a Centrifree ultrafiltration tube. The sample was centrifuged in a fixed-bucket rotor for approximately 2 min and the filtrate was discarded. The sample was centrifuged for another 15–30 min. A 100 μL sample of the ultrafiltrate was transfered to a micro HPLC sample vial containing […] of HPLC mobile phase and mixed thoroughly. A 50 μL sample was injected and the concentration of drug in the ultrafiltrate was determined by HPLC analysis compared against a standard sample prepared identically in the absence of plasma. Ultrafiltrate concentrations are calculated from a calibration curve. Protein binding is calculated according to the equation: % PB=[1−(Cu/Ci)]*100%
where Cu is the ultrafiltrate concentration and Ci is the initial plasma concentration.

In data set [2] the test system is male subjects with hormone refractory prostate cancer. Description: Prostate specific antigen (PSA) level assay in serum of treated subjects. The note with it: subjects treated with placebo or 2.5 mg or 10 mg. It is filed as in vivo, human. The method, then: (§1) Studies were performed on male subjects with asymptomatic hormone refractory prostate cancer with rising PSA levels and on male subjects with symptomatic hormone refractory prostate cancer with rising PSA levels and pain. Subjects in the phase II studies had castrate levels of testosterone, either due to pharmacologic intervention, via leuprolide (Lupron®) or goserelin (Zoladex®), or via surgical castration. Subjects received ABT-627 or placebo. The following tests were conducted:
(§2) ABT-627 was formulated in 2.5 and 10 mg doses. An oral liquid formulation of ABT-627 was also prepared as follows: 1 mg/ml ABT-627, 50% glycerin, 14% alcohol, and water. Matching placebos were also provided.
A number of recognized or putative biochemical markers of disease progression have been used to monitor treatment of individuals with prostate cancer. […]
The effect of ABT-627 administeration on prostate specific antigen (PSA) levels in human subject serum samples was determined using the procedure described in the Chiron Diagnostics ACS: Centaur PSA2 Assay. […]
Briefly, a subject population was treated with a placebo or 2.5 mg or 10 mg of ABT-627. […] A direct relationship exists between the amount of PSA present in the patient sample and the RLU's (relative light units) detected.

Data set [3] has the same test system. Description: Crosslinked N-telopeptide levels of treated subjects. The data set is classed as in vivo, human. The note with it: subjects treated versus placebo. The method, then:
as §1, §2
Markers of osteoblastic activity were assessed using […]. Bone markers include bone alkaline phosphatase (BAP), deoxypridinoline, and N-telopeptide of Type I collagen. Blood samples were collected prior to dosing on Day 1, Day 42, Day 84, Day 168, and every 28 days after Day 168, with a final collection on the last day of the study.
Cross-linked N-telopeptide levels were determined using the DiaSorin (Stillwater, MN) assay for the quantitative determination of carboxyterminal cross-linked telopeptide of type I collagen (ICTP) in human serum by equilibrium radioimmunoassay (RIA). […] The bound tracer in the pellet was counted with a gamma counter. […]

On to `CCCCN(C(=O)CN1CC(c2ccc3c(c2)OCO3)C(C(=O)O)C1c1ccc(OC)cc1)c1cccnc1` (stereo not drawn) [compound 531], for which, in data set [1], the fraction unbound at 1 h was 0.08.
As for `CCCCCN(CCCC)C(=O)CN1C[C@H](c2ccc3c(c2)OCO3)[C@@H](C(=O)O)[C@@H]1c1ccc(OC)cc1` [ABT-627], the “rate of increase of PSA in serum (AUC, FIG. 2)” value in data set [2] is on record as “rate of increase of PSA in the serum samples decreases”. For the same molecule, the “Crosslinked N-telopeptide levels (AUC, FIG. 4)” value in data set [3] is “Crosslinked N-telopeptide levels decreased”.
